Reference: ChEMBL document CHEMBL1145600, “Molecular features crucial to the activity of pyrimidine benzamide-based thrombopoietin receptor agonists” (Bioorg Med Chem Lett, 2008)

Each compound was assayed against T1, Thrombopoietin receptor (Homo sapiens, UniProt P40238) (assay: Agonist activity at TPO receptor).
T1 sequence (P40238 whole entry): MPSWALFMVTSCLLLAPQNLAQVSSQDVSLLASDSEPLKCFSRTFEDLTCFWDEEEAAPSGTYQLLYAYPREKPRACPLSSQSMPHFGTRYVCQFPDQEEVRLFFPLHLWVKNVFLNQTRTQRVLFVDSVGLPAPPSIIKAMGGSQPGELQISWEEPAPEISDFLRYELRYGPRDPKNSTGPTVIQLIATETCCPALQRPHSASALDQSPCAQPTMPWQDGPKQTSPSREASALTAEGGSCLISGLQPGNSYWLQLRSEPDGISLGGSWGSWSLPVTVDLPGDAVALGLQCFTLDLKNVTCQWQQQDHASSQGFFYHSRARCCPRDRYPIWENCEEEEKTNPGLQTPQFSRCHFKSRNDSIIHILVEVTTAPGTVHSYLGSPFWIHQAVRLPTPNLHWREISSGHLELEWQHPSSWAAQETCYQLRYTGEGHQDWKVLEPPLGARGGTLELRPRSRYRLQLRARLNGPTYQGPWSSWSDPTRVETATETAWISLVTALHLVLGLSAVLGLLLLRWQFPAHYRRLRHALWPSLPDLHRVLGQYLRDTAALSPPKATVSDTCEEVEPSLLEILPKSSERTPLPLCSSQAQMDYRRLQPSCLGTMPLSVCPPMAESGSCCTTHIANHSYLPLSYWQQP
Assay type: functional

SMILES | EC50 [nM]
O=C(Nc1nc2c(s1)COc1c(Cl)cccc1-2)c1ccc(Nc2ccncn2)cc1 | 530
Nc1nc(-c2ccc(F)c(C(F)(F)F)c2)cs1 | 100
Nc1nc(-c2cccc(OC(F)(F)F)c2F)cs1 | 32
Nc1nc(-c2ccc(F)c(C(F)(F)F)c2)c(F)s1 | 89
Nc1nc(-c2cccc(C(F)(F)F)c2F)cs1 | 57
Nc1nc(-c2c(F)cccc2F)cs1 | > 10000
O=C(Nc1nc2c(s1)COc1ccccc1-2)c1ccc(Nc2ccncn2)cc1 | 520
Nc1nc(-c2cccc(C(F)(F)F)c2F)c(F)s1 | 700
Cc1sc(N)nc1-c1ccc(F)c(C(F)(F)F)c1 | 180
Cc1sc(N)nc1-c1cccc(C(F)(F)F)c1F | 540
O=C(Nc1nc2c(s1)COc1c(F)cccc1-2)c1ccc(Nc2ccncn2)cc1 | 1500
Nc1nc(-c2cc(C(F)(F)F)ccc2F)cs1 | 5200
Nc1nc(-c2ccc(C(F)(F)F)cc2F)cs1 | 260
Nc1nc(-c2ccccc2F)cs1 | 6800

Each compound was assayed against T2, Thrombopoietin receptor (Homo sapiens) (UniProt P40238) (assay: Agonist activity at TPO receptor at 10 uM).
T2 sequence (whole entry): T1 sequence (P40238 whole entry)
Assay type: functional

SMILES | Activity [%]
O=C(Nc1nc(-c2ccccc2C(F)(F)F)cs1)c1ccc(Nc2ccncn2)cc1 | 38
Nc1nc(-c2c(F)cccc2F)cs1 | 0
O=C(Nc1nc(-c2ccccc2F)cs1)c1ccc(Nc2ccncn2)cc1 | 58
O=C(Nc1nc(-c2c(F)cccc2F)cs1)c1ccc(Nc2ccncn2)cc1 | 0
O=C(Nc1nc(-c2cccc(F)c2)cs1)c1ccc(Nc2ccncn2)cc1 | 45
